# Laboratory results reported in US12508275B2, “Neomycin based compounds, and pharmaceutical use thereof” (UNIVERSITÉ COTE D'AZUR, priority 2019, dated 2025).
# Tested on: human hepatocytes (HEPRG)
# Assay: XTT toxicity assay on human hepatocytes
# Assay type: cell-based
# Description: FIG. 4: Determination of compound toxicity on GSC and normal human cells. (A) GB5 were incubated with growing concentration of Compounds 9a-b and 18a. (B) human normal neural stem cell (NNSC), human normal kidney cells (NHEK), human normal hepatocytes (HEPRG) and (C) human endothelial cells (HUVEC) were treated with growing concentration of Compound 9a. 7 days later, the cells were subjected to an XTT assays as described in the method section. The results are the meaning of at least two separate experiments. Cell death was confirmed by trypan blue staining (not shown).
# HepaRG™ are terminally differentiated hepatic cells derived from a human hepatic progenitor cell that retains many characteristics of primary human hepatocytes. HepaRG were grown in William's E Medium supplemented with Tox medium supplement and glutamax.
# V—Toxicity tests: NNSC, GB5, TG6, HEK293, and HepaRG, HUVEC were seeded at 2000 cells/well in 96 wells plate in their respective culture mediums alone or containing growing concentration from 10 to 500 uM of Compounds 9a-b. Cultures were incubated 4 days and the cellular toxicity has been evaluated by XTT assays. Cell viability has been also assessed by counting living and dead cells with trypan blue staining.
# XTT assays allows, through cell metabolism measurement, to determine a cytotoxic/cytostatic effects. […]
smiles,measurement,setting,value
"NCCCCNCCCNC(=O)c1csc(-c2csc(CCNC(=O)CCc3cn(CC4OC(OC5C(O)C(N)CC(N)C5OC5OC(CN)C(O)C(O)C5N)C(O)C4OC4OC(CN)C(O)C(O)C4N)nn3)n2)n1 (centres unmarked) [Compound 9a, N-(3-((4-Aminobutyl)amino)propyl)-2′-(2-(3-(1-methyl-1H-1,2,3-triazol-4-yl)propanamido)ethyl)-[2,4′-bithiazole]-4-carboxamide-neomycin]",toxicity (XTT),100 uM and above,toxic
same,toxicity (XTT),between 10 to 50 uM,not toxic
